Target: human PDE10A2 (Homo sapiens (Human), UniProt Q9Y233)
Assay: PDE10 fluorescence polarization (IMAP FP) inhibition assay
Assay type: biochemical
Conditions: human PDE10A2, FAM-labeled cAMP substrate, read-out: PDE10A Ki
Protocol: The activity of the compounds in accordance with the present invention as PDE10 inhibitors may be readily determined without undue experimentation using a fluorescence polarization (FP) methodology that is well known in the art (Huang, W., et al., J. Biomol Screen, 2002, 7: 215).
In a typical experiment the PDE10 inhibitory activity of the compounds of the present invention was determined in accordance with the following experimental method. PDE10A2 was amplified from human fetal brain cDNA (Clontech, Mountain View, Calif.) using a forward primer corresponding to nucleotides 56-77 of human PDE10A2 (Accession No. AF127480, Genbank Identifier 4894716), containing a Kozak consensus sequence, and a reverse primer corresponding to nucleotides 2406-2413 of human PDE10A2 (Accession No. AF127480, Genbank Identifier 4894716). Amplification with Easy-A polymerase (Stratagene, La Jolla, Calif.) was 95° C. for 2 minutes followed by thirty three cycles of 95° C. for 40 seconds, 55° C. for 30 seconds, and 72° C. for 2 minutes 48 seconds. Final extension was 72° C. for 7 minutes. The PCR product was TA cloned into pcDNA3.2-TOPO (Invitrogen, Carlsbad, Calif.) according to standard protocol. AD293 cells with 70-80% confluency were transiently transfected with human PDE10A2/pcDNA3.2-TOPO using Lipofectamine 2000 according to manufacturer specifications (Invitrogen, Carlsbad, Calif.). Cells were harvested 48 hours post-transfection and lysed by sonication (setting 3, 10×5 sec pulses) in a buffer containing 20 mM HEPES, 1 mM EDTA and protease inhibitor cocktail (Roche). Lysate was collected by centrifugation at 75,000×g for 20 minutes. Supernatant containing the cytoplasmic fraction was used for evaluation of PDE10A2 activity. The fluorescence polarization assay for cyclic nucleotide phosphodiesterases was performed using an IMAP® FP kit supplied by Molecular Devices, Sunnyvale, Calif. (product # R8139). IMAPU technology has been applied previously to phosphodiesterase assays (Huang, W., et al., J. Biomol Screen, 2002, 7: 215). Assays were performed at room temperature in 384-well microtiter plates with an incubation volume of 20.2 μL. Solutions of test compounds were prepared in DMSO and serially diluted with DMSO to yield 8 μL of each of 10 solutions differing by 3-fold in concentration, at 32 serial dilutions per plate. 100% inhibition is determined using a known PDE10 inhibitor, which can be any compound that is present at 5,000 times its Ki value in the assay described as follows, such as papaverine (see Siuciak, et al. Neuropharmacology (2006) 51:386-396; Becker, et al. Behav Brain Res (2008) 186(2):155-60; Threlfell, et al., J Pharmacol Exp Ther (2009) 328(3):785-795), 2-{4-[pyridin-4-yl-1-(2,2,2-trifluoroethyl)-1H-pyrazol-3-yl]phenoxymethyl}quinoline succinic acid or 2-[4-(1-methyl-4-pyridin-4-yl-1H-pyrazol-3-yl)-phenoxymethyl]quinoline succinic acid (see Schmidt, et al. J Pharmacol Exp Ther (2008) 325:681-690; Threlfell, et al., J Pharmacol Exp Ther (2009) 328(3): 785-795). 0% of inhibition is determined by using DMSO (1% final concentrations).
A Labcyte Echo 555 (Labcyte, Sunnyvale, Calif.) is used to dispense 200 nL from each well of the titration plate to the 384 well assay plate. A solution of enzyme (1/1600 dilution from aliquots; sufficient to produce 20% substrate conversion) and a separate solution of FAM-labeled cAMP PDE from Molecular Devices (product # R7506), at a final concentration of 50 nM are made in the assay buffer (10 mM Tris HCl, pH 7.2, 10 mM MgCl2, 0.05% NaN3 0.01% Tween-20, and 1 mM DTT). The enzyme and the substrate are then added to the assay plates in two consecutive additions of 10 μL, and then shaken to mix. The reaction is allowed to proceed at room temperature for 30 minutes. A binding solution is then made from the kit components, comprised of 80% Solution A, 20% Solution B and binding reagent at a volume of 1/600 the total binding solution.

Chain of human PDE10A2 (Q9Y233 267-1055): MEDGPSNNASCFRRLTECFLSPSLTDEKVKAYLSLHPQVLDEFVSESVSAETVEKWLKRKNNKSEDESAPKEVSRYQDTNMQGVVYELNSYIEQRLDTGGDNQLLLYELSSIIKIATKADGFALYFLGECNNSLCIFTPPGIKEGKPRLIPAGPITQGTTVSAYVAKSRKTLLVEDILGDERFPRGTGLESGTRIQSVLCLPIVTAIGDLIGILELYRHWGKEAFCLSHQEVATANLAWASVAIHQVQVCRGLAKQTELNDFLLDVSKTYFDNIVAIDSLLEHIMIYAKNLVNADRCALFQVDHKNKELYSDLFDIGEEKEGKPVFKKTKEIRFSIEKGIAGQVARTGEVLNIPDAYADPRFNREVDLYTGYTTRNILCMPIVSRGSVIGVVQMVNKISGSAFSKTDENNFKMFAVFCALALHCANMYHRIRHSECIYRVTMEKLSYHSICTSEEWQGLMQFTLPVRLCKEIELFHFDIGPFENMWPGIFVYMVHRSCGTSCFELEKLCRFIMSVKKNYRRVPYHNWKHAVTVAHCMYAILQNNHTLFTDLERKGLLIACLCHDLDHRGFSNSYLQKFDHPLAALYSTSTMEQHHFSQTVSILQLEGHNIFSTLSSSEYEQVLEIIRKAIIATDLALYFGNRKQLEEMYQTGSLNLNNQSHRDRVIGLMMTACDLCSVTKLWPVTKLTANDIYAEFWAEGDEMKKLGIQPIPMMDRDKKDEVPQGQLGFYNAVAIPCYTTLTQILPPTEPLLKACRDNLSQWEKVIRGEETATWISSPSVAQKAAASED

| Compound | Ki [nM] |
| --- | --- |
| Cc1ccc([C@H]2C[C@@H]2COc2nc(C)ncc2-c2ccc(=O)n(CC(F)F)c2)nc1 [Example 43, 1-(2,2-difluoroethyl)-5-(2-methyl-4-(((1S,2S)-2-(5-methylpyridin-2-yl)cyclopropyl)methoxy)pyrimidin-5-yl)pyridin-2(1H)-one] | 2.56 |
| COc1ccc([C@H]2C[C@@H]2COc2nc(C)ncc2-c2cc(=O)[nH]cc2C)nc1 [Example 77, 4-(4-(((1S,2S)-2-(5-methoxypyridin-2-yl)cyclopropyl)methoxy)-2-methylpyrimidin-5-yl)-5-methylpyridin-2(1H)-one] | 0.612 |
| COc1ccc([C@H]2C[C@@H]2COc2nc(C)ncc2-c2cc(=O)[nH]cc2Cl)nc1 [Example 83, 5-chloro-4-(4-(((1S,2S)-2-(5-methoxypyridin-2-yl)cyclopropyl)methoxy)-2-methylpyrimidin-5-yl)pyridin-2(1H)-one] | 0.39 |
| COc1ccc([C@H]2C[C@@H]2COc2nc(C)ncc2-c2cc(=O)n(C)cc2S(C)(=O)=O)nc1 [Example 98, 4-(4-(((1S,2S)-2-(5-methoxypyridin-2-yl)cyclopropyl)methoxy)-2-methylpyrimidin-5-yl)-1-methyl-5-(methylsulfonyl)pyridin-2(1H)-one] | 67.5 |
| COc1ccc([C@H]2C[C@@H]2COc2nc(C)ncc2-c2cc(=O)n(C)cc2C)nc1 [Example 82, 4-(4-(((1S,2S)-2-(5-methoxypyridin-2-yl)cyclopropyl)methoxy)-2-methylpyrimidin-5-yl)-1,5-dimethylpyridin-2(1H)-one] | 0.496 |
| Cc1ncc(-c2ccn(C)c(=O)c2)c(OC[C@H]2C[C@@H]2c2ccc(F)cn2)n1 [Example 88, 4-(4-(((1S,2S)-2-(5-fluoropyridin-2-yl)cyclopropyl)methoxy)-2-methylpyrimidin-5-yl)-1-methylpyridin-2(1H)-one] | 27.5 |
| COC(=O)Cn1cc(-c2cnc(C)nc2OC[C@H]2C[C@@H]2c2ccc(C)cn2)ccc1=O [Example 1, methyl 2-(5-(2-methyl-4-(((1S,2S)-2-(5-methylpyridin-2-yl)cyclopropyl)methoxy)pyrimidin-5-yl)-2-oxopyridin-1(2H)-yl)acetate] | 4.39 |
| Cc1ccc([C@H]2C[C@@H]2COc2nc(C)ncc2-c2cc(=O)n(C)cc2C)nc1 [Example 72, 1,5-dimethyl-4-(2-methyl-4-(((1S,2S)-2-(5-methylpyridin-2-yl)cyclopropyl)methoxy)pyrimidin-5-yl)pyridin-2(1H)-one] | 2.16 |
| COc1ccc([C@H]2C[C@@H]2COc2nc(C)ncc2-c2cc(C)c(=O)n(C)n2)nc1 [Example 66, 6-(4-(((1S,2S)-2-(5-methoxypyridin-2-yl)cyclopropyl)methoxy)-2-methylpyrimidin-5-yl)-2,4-dimethylpyridazin-3(2H)-one] | 1.23 |
| Cc1ccc([C@H]2C[C@@H]2COc2nc(C)ncc2-c2ccn(C(C)C)c(=O)c2)nc1 [Example 91, 1-isopropyl-4-(2-methyl-4-(((1S,2S)-2-(5-methylpyridin-2-yl)cyclopropyl)methoxy)pyrimidin-5-yl)pyridin-2(1H)-one] | 1.2 |
| Cc1ccc([C@H]2C[C@@H]2COc2nc(C)ncc2-c2ccn(CCC#N)c(=O)c2)nc1 [Example 119, 3-(4-(2-methyl-4-(((1S,2S)-2-(5-methylpyridin-2-yl)cyclopropyl)methoxy)pyrimidin-5-yl)-2-oxopyridin-1(2H)-yl)propanenitrile] | 1.58 |
| Cc1ncc(-c2ccc(=O)n(C)c2)c(OC[C@H]2C[C@@H]2c2ccc3c(n2)CCC3)n1 [Example 42, 5-(4-(((1S,2S)-2-(6,7-dihydro-5H-cyclopenta[b]pyridin-2-yl)cyclopropyl)methoxy)-2-methylpyrimidin-5-yl)-1-methylpyridin-2(1H)-one] | 0.531 |
| Cc1ccc([C@H]2C[C@@H]2COc2nc(C)ncc2-c2cc(C)c(=O)n(C)n2)nc1 [Example 65, 2,4-dimethyl-6-(2-methyl-4-(((1S,2S)-2-(5-methylpyridin-2-yl)cyclopropyl)methoxy)pyrimidin-5-yl)pyridazin-3(2H)-one] | 1.83 |
| Cc1ccc([C@H]2C[C@@H]2COc2nc(C)ncc2-c2ccn(C(F)F)c(=O)c2)nc1 [Example 116, 1-(difluoromethyl)-4-(2-methyl-4-(((1S,2S)-2-(5-methylpyridin-2-yl)cyclopropyl)methoxy)pyrimidin-5-yl)pyridin-2(1H)-one] | 1.83 |
| COc1ccc([C@H]2C[C@@H]2COc2nc(C)ncc2-c2ccc(=O)n(CCC#N)c2)nc1 [Example 45, 3-(5-(4-(((1S,2S)-2-(5-methoxypyridin-2-yl)cyclopropyl)methoxy)-2-methylpyrimidin-5-yl)-2-oxopyridin-1(2H)-yl)propanenitrile] | 1.78 |
| Cc1ncc(-c2ccn(C)c(=O)c2)c(OC[C@H]2C[C@@H]2c2ccccn2)n1 [Example 80, 1-methyl-4-(2-methyl-4-(((1S,2S)-2-(pyridin-2-yl)cyclopropyl)methoxy)pyrimidin-5-yl)pyridin-2(1H)-one] | 10.8 |
| [2H]C([2H])([2H])n1ccc(-c2cnc(C)nc2OC[C@H]2C[C@@H]2c2ccc(C)cn2)cc1=O [Example 125, 1-methyl-4-(2-methyl-4-(((1S,2S)-2-(5-methylpyridin-2-yl)cyclopropyl)methoxy)pyrimidin-5-yl)pyridin-2(1H)-one] | 1.66 |
| COCCn1c(C)c(-c2cnc(C)nc2OC[C@H]2C[C@@H]2c2ccc(C)cn2)ccc1=O [Example 7, 1-(2-methoxyethyl)-6-methyl-5-(2-methyl-4-(((1S,2S)-2-(5-methylpyridin-2-yl)cyclopropyl)methoxy)pyrimidin-5-yl)pyridin-2(1H)-one] | 3.06 |
| Cc1ccc([C@H]2C[C@@H]2COc2nc(C)ncc2-c2cn(C)c(=O)cn2)nc1 [Example 62, 1-methyl-5-(2-methyl-4-(((1S,2S)-2-(5-methylpyridin-2-yl)cyclopropyl)methoxy)pyrimidin-5-yl)pyrazin-2(1H)-one] | 12.9 |
| COc1ccc([C@H]2C[C@@H]2COc2nc(C)ncc2-c2ccc(=O)n(CC3CC3)c2)nc1 [Example 53, 1-(cyclopropylmethyl)-5-(4-(((1S,2S)-2-(5-methoxypyridin-2-yl)cyclopropyl)methoxy)-2-methylpyrimidin-5-yl)pyridin-2(1H)-one] | 0.377 |
| Cc1ncc(-c2ccc(=O)n(C(C)C)c2)c(OC[C@H]2C[C@@H]2c2ccc3ccccc3n2)n1 [Example 9, 1-isopropyl-5-(2-methyl-4-(((1S,2S)-2-(quinolin-2-yl)cyclopropyl)methoxy)pyrimidin-5-yl)pyridin-2(1H)-one] | 0.014 |
| COc1ccc([C@H]2C[C@@H]2COc2nc(C)ncc2-c2ccc(=O)n(CC(F)(F)F)c2)nc1 [Example 52, 5-(4-(((1S,2S)-2-(5-methoxypyridin-2-yl)cyclopropyl)methoxy)-2-methylpyrimidin-5-yl)-1-(2,2,2-trifluoroethyl)pyridin-2(1H)-one] | 3.11 |
| COc1ccc([C@H]2C[C@@H]2COc2nc(C)ncc2-c2ccn(CCO)c(=O)c2)nc1 [Example 127, 1-(2-hydroxyethyl)-4-(4-(((1S,2S)-2-(5-methoxypyridin-2-yl)cyclopropyl)methoxy)-2-methylpyrimidin-5-yl)pyridin-2(1H)-one] | 0.64 |
